Like-named read-outs stand apart in the source and are kept apart here.

Data set [1] concerns SARS-CoV-2 B.1.1.7 lineage. The data set is described as follows: microbe, parasite or virus in culture. In kind it is cell-based. Particulars: Severe acute respiratory syndrome coronavirus 2; Table C; SARS-CoV-2 B.1.1.7 in A549-dual_ACE2_TMPRSS2 cells, class symbols; read-out: A549-dual_ACE2_TMPRSS2 (EC50).
Data set [2] deals with human beta-coronavirus OC43. The data set is described as follows: OC43 Coronavirus Assay in HeLa cells (antiviral, cytopathic effect, cell-titer-glo). Particulars: Betacoronavirus 1, OC43, HeLa, Table B, OC43 coronavirus in HeLa cells, read-out: EC50. In kind it is cell-based.
The nature of data set [3]: Cytotoxicity in HeLa cells without addition of OC43 virus (in parallel). Particulars: human, HeLa cells, without OC43 virus.
The nature of data set [4]: in vitro. Particulars: human.
Data set [5] addresses SARS-Cov-2 3CLpro (Severe acute respiratory syndrome coronavirus 2, UniProt P0DTD1). The data set is described as follows: biochemical. Particulars: Table A, class symbols, read-out: SARS-Cov-2 (IC50).

Turning to `CN(C(=O)[C@@H](NC(=O)C(F)(F)F)C(C)(C)C)[C@@H](CC1CC1)C(=O)N1C[C@@]2(C[C@H]1C#N)Oc1cc(F)cc(F)c1NC2=O` [Compound 53], the EC50 in data set [1] and in data set [2] (class symbols) was 0.1 to 1 µM throughout. This molecule also had a CC50 at 6 days in data set [3] above 10 µM. This molecule had a CC50 in data set [4] above 1 µM. Besides, the IC50 in data set [5] was below 0.02 µM.

Take `CN(C(=O)[C@H](CC1CC1)NC(=O)C(F)(F)F)[C@@H](CC(C)(C)F)C(=O)N1C[C@@]2(CC1C#N)Oc1cc(F)cc(F)c1NC2=O` (stereo partly shown) [Compound 54]: the EC50 in data set [1] is 0.1 to 1 µM; in data set [2] (class symbols), below 0.1 µM. The CC50 at 6 days in data set [3] was above 10 µM. In data set [4], the CC50 is above 1 µM. Moreover, in data set [5], the IC50 was below 0.02 µM.

Consider `CN(C(=O)[C@H](CC1CC1)NC(=O)C(F)(F)F)[C@@H](CC1CC1)C(=O)N1C[C@@]2(C[C@H]1C#N)Oc1cc(F)cc(F)c1NC2=O` [Compound 55], for which the EC50 in data set [1] and in data set [2] (class symbols) was below 0.1 µM each time. In data set [3], the CC50 at 6 days was above 10 µM. In data set [4], this molecule returned a CC50 above 1 µM. Moreover, the IC50 in data set [5] was below 0.02 µM.

As for `CN(C(=O)[C@H](CC1CC1)NC(=O)C(F)(F)F)[C@@H](CC1CC1)C(=O)N1C[C@@]2(C[C@H]1C#N)Oc1cccc(F)c1NC2=O` [Compound 56], the EC50 in data set [1] and in data set [2] (class symbols) was below 0.1 µM throughout. The molecule also gave a CC50 at 6 days in data set [3] above 10 µM. This molecule registered a CC50 in data set [4] above 1 µM. Moreover, the IC50 in data set [5] is below 0.02 µM.

With `CN(C(=O)[C@H](CC1CC1)NC(=O)C(F)(F)F)[C@@H](CC1CC1)C(=O)N1C[C@@]2(C[C@H]1C#N)Oc1c(F)ccc(F)c1NC2=O` [Compound 57], the EC50 in data set [1] and in data set [2] (class symbols) was below 0.1 µM throughout. Also, the CC50 at 6 days in data set [3] was above 10 µM. The CC50 in data set [4] was above 1 µM. Besides, in data set [5], the concentration for half-maximal inhibition (IC50) is below 0.02 µM.

Take `CC(C)C[C@@H](C(=O)N1C[C@@]2(C[C@H]1C#N)Oc1cc(Cl)cc(F)c1NC2=O)N(C)C(=O)[C@H](C)NC(=O)C(F)(F)F` [Compound 58]: the EC50 in data set [1] and in data set [2] (class symbols) was 0.1 to 1 µM in each case. In data set [3], this molecule showed a CC50 at 6 days above 10 µM. In data set [4], this molecule came in with a CC50 above 1 µM. Besides, in data set [5], the IC50 was below 0.02 µM.

With `CN(C(=O)[C@H](CC1CC1)NC(=O)C(F)(F)F)[C@@H](CC1CC1)C(=O)N1C[C@@]2(C[C@H]1C#N)Oc1cc(Cl)cc(F)c1NC2=O` [Compound 59], the EC50 in data set [1] and in data set [2] (class symbols) was below 0.1 µM throughout. For the same molecule, the CC50 at 6 days in data set [3] is above 10 µM. The molecule further showed a CC50 in data set [4] above 1 µM. In addition, the IC50 in data set [5] was below 0.02 µM.

As for `CN(C(=O)[C@H](CC1CC1)NC(=O)C(F)(F)F)[C@@H](CC1CC1)C(=O)N1C[C@@]2(C[C@H]1C#N)CC1(CC1)NC2=O` [Compound 60], the EC50 in data set [1] and in data set [2] (class symbols) was below 0.1 µM throughout. The same molecule came in with a CC50 at 6 days in data set [3] above 10 µM. The molecule also returned a CC50 in data set [4] above 1 µM. The IC50 in data set [5] was below 0.02 µM.

Take `C[C@H](NC(=O)C(F)(F)F)C(=O)N(C)[C@@H](CC(C)(C)F)C(=O)N1C[C@@]2(C[C@H]1C#N)Oc1cc(F)cc(F)c1NC2=O` [Compound 61]: the EC50 in data set [1] was 0.1 to 1 µM; in data set [2] (class symbols) it was 1 to 10 µM. The same molecule showed a CC50 at 6 days in data set [3] above 10 µM. The CC50 in data set [4] was above 1 µM. In data set [5], the IC50 is below 0.02 µM.

In the case of `C[C@H](NC(=O)C(F)(F)F)C(=O)N(C)[C@@H](CC(C)(C)C)C(=O)N1C[C@@]2(C[C@H]1C#N)Oc1cc(F)cc(F)c1NC2=O` [Compound 62], the half-maximal effective concentration (EC50) in data set [1] and in data set [2] (class symbols) was 0.1 to 1 µM throughout. This molecule also came in with a CC50 at 6 days in data set [3] above 10 µM. In data set [4], this molecule showed a CC50 above 1 µM. For the same molecule, the IC50 in data set [5] is below 0.02 µM.

`CC(C)C[C@H](NC(=O)C(F)(F)F)C(=O)N(C)[C@@H](CC(C)C)C(=O)N1C[C@@]2(C[C@H]1C#N)Oc1cc(F)cc(F)c1NC2=O` [Compound 63]: the EC50 in data set [1] and in data set [2] (class symbols) was 0.1 to 1 µM throughout. Also, in data set [3], the CC50 at 6 days is above 10 µM. For the same molecule, the CC50 in data set [4] was above 1 µM. In addition, the IC50 in data set [5] is below 0.02 µM.

`CC(C)C[C@@H](C(=O)N1C[C@@]2(C[C@H]1C#N)Oc1cc(F)cc(F)c1NC2=O)N(C)C(=O)[C@H](CC(C)(C)F)NC(=O)C(F)(F)F` [Compound 64]: the results for the EC50 in data set [1] and in data set [2] (class symbols) were 0.1 to 1 µM and below 0.1 µM, respectively. In data set [3], this molecule had a CC50 at 6 days above 10 µM. This molecule also gave a CC50 in data set [4] above 1 µM. The IC50 in data set [5] was below 0.02 µM.

As for `CC(C)C[C@@H](C(=O)N1C[C@@]2(C[C@H]1C#N)Oc1cccnc1NC2=O)N(C)C(=O)[C@H](C)NC(=O)C(F)(F)F` [Compound 65], the EC50 in data set [1] and in data set [2] (class symbols) was 0.1 to 1 µM in each case. Moreover, the CC50 at 6 days in data set [3] was above 10 µM. The molecule further had a CC50 in data set [4] above 1 µM. Moreover, in data set [5], the IC50 is below 0.02 µM.

In the case of `CN(C(=O)[C@H](CC1CC1)NC(=O)C(F)(F)F)[C@@H](CC1CC1)C(=O)N1C[C@@]2(C[C@H]1C#N)Oc1cccnc1NC2=O` [Compound 66], the EC50 in data set [1] and in data set [2] (class symbols) was below 0.1 µM throughout. The CC50 at 6 days in data set [3] is above 10 µM. In addition, the CC50 in data set [4] was above 1 µM. Moreover, the IC50 in data set [5] is below 0.02 µM.

With `CN(C(=O)[C@H](CC1CC1)NC(=O)C(F)(F)F)[C@@H](CC1CC1)C(=O)N1C[C@@]2(C[C@H]1C#N)Oc1cc(F)cnc1NC2=O` [Compound 67], the EC50 was 0.1 to 1 µM in data set [1] and below 0.1 µM in data set [2] (class symbols). The molecule further gave a CC50 at 6 days in data set [3] above 10 µM. The molecule further displayed a CC50 in data set [4] above 1 µM. In addition, the IC50 in data set [5] is below 0.02 µM.

As for `CC(C)C[C@@H](C(=O)N1C[C@@]2(C[C@H]1C#N)Oc1cc(F)cc(F)c1NC2=O)N(C)C(=O)[C@H](Cc1ccc(F)cc1)NC(=O)C(F)(F)F` [Compound 69], the half-maximal effective concentration (EC50) in data set [1] was 0.1 to 1 µM; in data set [2] (cells given as a bound) it was above 10 µM. Moreover, the CC50 at 6 days in data set [3] was above 10 µM. In data set [4], this molecule had a CC50 above 1 µM. Moreover, the IC50 in data set [5] is below 0.02 µM.

As to `COC(=O)N[C@@H](C)C(=O)N(C)[C@@H](CC(C)C)C(=O)N1C[C@@]2(C[C@H]1C#N)Oc1cc(F)cc(F)c1NC2=O` [Compound 70], the figures for the EC50 in data set [1] and in data set [2] (cells given as a bound) were 0.1 to 1 µM and above 10 µM, respectively. This molecule also gave a CC50 at 6 days in data set [3] above 10 µM. In data set [4], this molecule came in with a CC50 above 1 µM. In addition, the IC50 in data set [5] is below 0.02 µM.

In the case of `CC(C)C[C@@H](C(=O)N1C[C@@]2(C[C@H]1C#N)Oc1cc(F)cc(F)c1NC2=O)N(C)C(=O)[C@H](C)NC(=O)C1(F)CC1` [Compound 71], the EC50 in data set [1] and in data set [2] (class symbols) was 0.1 to 1 µM each time. The CC50 at 6 days in data set [3] was above 10 µM. This molecule also had a CC50 in data set [4] above 1 µM. Moreover, the IC50 in data set [5] was below 0.02 µM.

`COC[C@H](NC(=O)C(F)(F)F)C(=O)N(C)[C@@H](CC(C)C)C(=O)N1C[C@@]2(C[C@H]1C#N)Oc1cc(F)cc(F)c1NC2=O` [Compound 72]: the EC50 in data set [1] and in data set [2] (class symbols) was 0.1 to 1 µM in each case. The same molecule returned a CC50 at 6 days in data set [3] above 10 µM. In addition, the CC50 in data set [4] was above 1 µM. In data set [5], the IC50 is below 0.02 µM.

Regarding `CN(C(=O)[C@H](CC1CC1)NC(=O)C(F)(F)F)[C@@H](CC1CC1)C(=O)N1C[C@@]2(C[C@H]1C#N)Oc1cnccc1NC2=O` [Compound 73], the EC50 in data set [1] and in data set [2] (class symbols) was 0.1 to 1 µM in each case. The CC50 at 6 days in data set [3] is above 10 µM. The same molecule came in with a CC50 in data set [4] above 1 µM. For the same molecule, the half-maximal inhibitory concentration (IC50) in data set [5] was 0.02 to 0.2 µM.

One may read the EC50 as the midpoint of the concentration-response curve. One may read the IC50 as the point on the concentration scale where inhibition reaches its midpoint.

The values are drawn from US20240199647A1, “ANTI-VIRAL COMPOUNDS” (Aligos Therapeutics, Inc., priority 2022, published 2024).
